The record followed here is patent US20240207221A1, “TREATMENT OF HYPERAMMONEMIA” (BIOCODEX, priority 2021, published 2024).

Format in all cases: in vivo
The subject of assay [1] is methionine sulfoximine (MSO)-induced hyperammonemia. As to conditions: for ammonemia: mean ± MSE. On the procedure: (§1) Appl. Neurobiol. 11: 129-139, as follows.
(§2) Male CBA mice (Janvier) weighing between 23 and 27 grams are used after acclimatization for at least 4 days in the animal house (t°=22±2° C.; housing conditions are as follows: SAFE “A04” food; drinking water: tap water; nycthemeral cycle: 12 h/12 h (light: 7 h/19 h-dark: 19 h/7 h)).
(§3) On test day, mice are weighed, marked and placed in individual cages. At t ═O minutes, MSO (0.1 mL/10 g) is administered intraperitoneally, and the mice are carefully observed for 8 hours.
(§4) Stiripentol (0.1 mL/10 g) is administered intraperitoneally at different times with respect to MSO.
Results are expressed as the mean value±MSE.

The subject of assay [2] is methionine sulfoximine (MSO)-induced convulsions. The method, then:
as §1, §2
On reception, mice are grouped in batches of 8 to 10 in 1500 U cages (floor area 1500 cm2) with bedding and sizzle dry (SDS) enrichment, in line with the ethical recommendations of European Parliament Directive 2010/63/EU (Sep. 22, 2010).
as §3
The parameters evaluated are the general condition of the animals, according to the Irwin grid (Irwin 1968), the number of convulsions, their onset times and mortality. Animals are euthanized as soon as limit points are reached, or at the end of the 8-hour observation period, according to the ANI07 procedure approved by the Ethics Committee.
as §4
Stiripentol (batch 176) was suspended in 5% (v/v) Tween 80 and 0.9% NaCl.
Results are expressed as the mean value±MSE. The statistical tests used are: • Fisher's exact test for percentages of convulsions and mortality, to determine a significant difference between groups at the 5% threshold, • A one-factor analysis of variance for the assays, to determine whether the pharmacological effect observed is significant at the 5% level (SigmaPlot 3.1 software).
Appl. Neurobiol. 11: 129-139.

The next assay has as its system ammonia. The assay is described as follows: Specific effect of stiripentol on ammonemia (without MSO), ABCAM ammonia assay kit. As to conditions: stiripentol 300 mg/kg intraperitoneally without methionine sulfoximine, mice. On the procedure: Blood is collected under isoflurane anesthesia by cardiac puncture (0.5 to 1.0 mL per mouse) to determine ammonia levels. In the case of brain and blood sampling, the mouse is rapidly sacrificed by decapitation: the brain is removed and frozen in liquid nitrogen. The liver can then be removed and rapidly frozen in liquid nitrogen. Samples are stored at −80° C.
Stiripentol (0.1 mL/10 g) is administered intraperitoneally at different times with respect to MSO. […]
Ammonia is determined colorimetrically using a microplate reader (Dynex, model MRX), and an ABCAM kit (ref AB83360, ammonia assay kit) containing several reagents. This kit enables quantitative enzymatic determination of ammonium present in the samples. During the assay, ammonium is converted to a product that reacts with the OxiRed probe for quantification at 570 nm using a microplate reader. […] The kit, stored at −20° C., includes the following components: • Ammonia assay buffer (25 mL): ready to use, bring to room temperature before use; • OxiRed probe (200 μL): ready to use, warm to 37° ° C. to thaw DMSO; • Developer (1 vial): reconstitute with 220 μL of Ammonia assay buffer; • enzyme Mix (1 vial): reconstitute with 220 μL of Ammonia assay buffer; • Converting Enzyme (1 vial): reconstitute with 220 μl of Ammonia assay buffer, • 10 mM NH4Cl standard (100 μL): ready to use, keep on ice during use. […]

Where [3] appears, read: stiripentol 300 mg/kg intraperitoneally, mice (conclusion).
Where [4] appears, read: 300 mg/kg stiripentol intraperitoneally 30 minutes prior to 50 mg/kg MSO.
[5] abbreviates: 300 mg/kg stiripentol intraperitoneally just prior to 50 mg/kg MSO.

Read-outs that look alike come from different tables or passages of the source.

With `CC(C)(C)C(O)/C=C/c1ccc2c(c1)OCO2` (stereo not drawn) [stiripentol], the ammonemia in assay [1] (300 mg/kg stiripentol 30 minutes prior to 50 mg/kg MSO (FIG. 1)) was 448 ± 65 µM; in assay [1] (300 mg/kg stiripentol just prior to 50 mg/kg MSO), 417 ± 51 µM; in the assay with ammonia (plasma, mean ± MSE) it was 176 ± 14 µM. The reduction of hyperammonemia came out at 41% in assay [1] (300 mg/kg stiripentol 30 minutes prior to 50 mg/kg MSO, compared with the MSO-only group) and 32% in assay [1] (300 mg/kg stiripentol just prior to 50 mg/kg MSO, versus MSO only). For the same molecule, in assay [1] (setting [3]), the “effect on MSO-induced hyperammonemia” value was “significantly reduces”. In addition, the results for the convulsion rate in assay [2] (setting [4]) and in assay [2] (setting [5]) were 45% and 50%, respectively. Also, the mortality rate in assay [2] (setting [4]) and in assay [2] (setting [5]) was 25% in each case. The “effect on methionine sulfoximine-induced convulsions and mortality” value in assay [2] (setting [3]) is recorded as “significantly reduces”. In addition, the “effect on ammonemia compared with the control group” value in the assay with ammonia is listed as “did not alter ammonemia”.
